Where “and” joins values, the source holds several entries; their conditions need not be identical. Equal values may be shown once. Calls of active or inactive are those of the source. The rule behind the calls is not given here.
What was measured:
D(1A) dopamine receptor [1] = target: T1, D(1A) dopamine receptor (Rattus norvegicus, UniProt P18901); design: species or system Tissue
Description: In vitro binding affinity towards Dopamine receptor D1 in rat tissue homogenate using [3H]-SCH- 23390 as radioligand

D(3) dopamine receptor [2] = target: T2, D(3) dopamine receptor (Rattus norvegicus, UniProt P19020); assay: biochemical; format: cell-based, Sf9
T2 sequence (P19020 whole entry): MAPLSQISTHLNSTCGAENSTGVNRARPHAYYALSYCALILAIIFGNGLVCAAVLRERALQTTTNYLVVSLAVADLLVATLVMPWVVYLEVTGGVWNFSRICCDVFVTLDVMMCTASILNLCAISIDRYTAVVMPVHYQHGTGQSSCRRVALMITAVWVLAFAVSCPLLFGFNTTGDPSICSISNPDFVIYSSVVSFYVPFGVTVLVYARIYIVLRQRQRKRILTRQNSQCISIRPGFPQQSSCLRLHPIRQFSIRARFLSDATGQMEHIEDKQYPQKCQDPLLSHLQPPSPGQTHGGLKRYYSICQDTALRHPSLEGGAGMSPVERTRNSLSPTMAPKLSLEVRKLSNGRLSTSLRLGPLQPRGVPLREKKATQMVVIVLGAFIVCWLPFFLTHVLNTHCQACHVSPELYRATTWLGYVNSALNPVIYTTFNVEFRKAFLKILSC
Description: (§1) In vitro binding affinity towards Dopamine receptor D3 in Sf9 cell membranes using [3H]7-OH-DPAT as radioligand

[3] = target: T3, 5-hydroxytryptamine receptor 2A (Rattus norvegicus, UniProt P14842)
T3 sequence (P14842 whole entry): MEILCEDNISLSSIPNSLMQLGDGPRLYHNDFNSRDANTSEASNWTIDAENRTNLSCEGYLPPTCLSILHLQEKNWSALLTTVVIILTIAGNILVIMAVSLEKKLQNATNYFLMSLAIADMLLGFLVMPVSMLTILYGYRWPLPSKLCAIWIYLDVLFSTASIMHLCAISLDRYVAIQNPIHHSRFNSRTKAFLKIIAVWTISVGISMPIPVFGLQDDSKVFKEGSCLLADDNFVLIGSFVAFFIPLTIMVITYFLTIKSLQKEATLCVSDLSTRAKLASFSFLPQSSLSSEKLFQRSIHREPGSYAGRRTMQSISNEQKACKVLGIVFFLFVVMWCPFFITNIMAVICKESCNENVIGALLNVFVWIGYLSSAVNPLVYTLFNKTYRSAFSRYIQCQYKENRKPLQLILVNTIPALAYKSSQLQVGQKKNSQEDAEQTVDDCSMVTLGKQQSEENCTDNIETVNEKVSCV
Description: In vitro binding affinity towards 5-hydroxytryptamine 2A receptor in rat tissue homogenate using [3H]ketanserin as radioligand

[4] = target: 5-hydroxytryptamine receptor 2A (Homo sapiens, UniProt P28223)
Chain of 5-hydroxytryptamine receptor 2A (Homo sapiens, UniProt P28223) (P28223 whole entry): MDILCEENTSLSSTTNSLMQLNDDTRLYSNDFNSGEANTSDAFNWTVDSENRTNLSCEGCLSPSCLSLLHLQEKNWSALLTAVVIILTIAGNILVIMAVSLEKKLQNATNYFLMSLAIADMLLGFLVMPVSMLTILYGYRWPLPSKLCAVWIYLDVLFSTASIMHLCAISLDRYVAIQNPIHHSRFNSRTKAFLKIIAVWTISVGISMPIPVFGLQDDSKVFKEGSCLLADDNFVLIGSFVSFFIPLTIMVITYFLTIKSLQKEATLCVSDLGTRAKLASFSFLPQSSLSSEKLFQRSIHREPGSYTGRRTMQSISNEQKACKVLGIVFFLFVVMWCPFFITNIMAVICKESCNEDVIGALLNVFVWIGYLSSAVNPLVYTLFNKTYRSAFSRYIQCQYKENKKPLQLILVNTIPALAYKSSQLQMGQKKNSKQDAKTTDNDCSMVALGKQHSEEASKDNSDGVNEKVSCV
Description: In vitro binding affinity towards 5-hydroxytryptamine 2A receptor in human using [3H]ketanserin as radioligand

[5] = target: T4, Adrenergic receptor alpha-1 (Rattus norvegicus, UniProt P15823+P23944+P43140); format: tissue-based, Frontal cortex
T4 sequence (P15823 whole entry): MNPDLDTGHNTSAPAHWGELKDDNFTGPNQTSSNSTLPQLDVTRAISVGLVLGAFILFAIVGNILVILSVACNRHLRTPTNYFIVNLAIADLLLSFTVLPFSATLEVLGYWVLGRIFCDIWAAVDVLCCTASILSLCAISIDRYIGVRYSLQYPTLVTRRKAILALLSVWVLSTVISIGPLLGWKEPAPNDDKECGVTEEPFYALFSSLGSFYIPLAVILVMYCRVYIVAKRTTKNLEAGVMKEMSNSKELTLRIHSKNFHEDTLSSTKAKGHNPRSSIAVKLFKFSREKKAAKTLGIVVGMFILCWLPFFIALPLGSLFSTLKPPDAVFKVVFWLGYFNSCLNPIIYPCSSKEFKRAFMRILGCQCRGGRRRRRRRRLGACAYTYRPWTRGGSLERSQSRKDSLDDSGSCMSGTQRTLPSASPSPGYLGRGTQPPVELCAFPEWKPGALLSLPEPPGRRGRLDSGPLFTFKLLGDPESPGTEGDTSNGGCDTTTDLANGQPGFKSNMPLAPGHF
T4 sequence (P23944 whole entry): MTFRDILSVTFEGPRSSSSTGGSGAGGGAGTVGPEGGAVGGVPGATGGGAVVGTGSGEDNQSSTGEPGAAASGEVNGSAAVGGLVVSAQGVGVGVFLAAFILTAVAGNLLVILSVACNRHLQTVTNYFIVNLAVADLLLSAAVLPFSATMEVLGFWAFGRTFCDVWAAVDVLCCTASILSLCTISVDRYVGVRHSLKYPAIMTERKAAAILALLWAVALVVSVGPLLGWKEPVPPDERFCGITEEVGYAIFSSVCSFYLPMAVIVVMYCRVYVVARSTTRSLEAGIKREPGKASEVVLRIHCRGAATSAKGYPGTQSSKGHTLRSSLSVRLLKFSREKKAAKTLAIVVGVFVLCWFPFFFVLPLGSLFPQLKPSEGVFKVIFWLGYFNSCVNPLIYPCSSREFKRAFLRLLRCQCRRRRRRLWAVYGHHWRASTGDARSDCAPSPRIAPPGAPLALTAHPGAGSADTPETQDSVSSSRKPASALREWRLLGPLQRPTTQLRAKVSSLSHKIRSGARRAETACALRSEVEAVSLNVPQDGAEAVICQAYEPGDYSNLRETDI
T4 sequence (P43140 whole entry): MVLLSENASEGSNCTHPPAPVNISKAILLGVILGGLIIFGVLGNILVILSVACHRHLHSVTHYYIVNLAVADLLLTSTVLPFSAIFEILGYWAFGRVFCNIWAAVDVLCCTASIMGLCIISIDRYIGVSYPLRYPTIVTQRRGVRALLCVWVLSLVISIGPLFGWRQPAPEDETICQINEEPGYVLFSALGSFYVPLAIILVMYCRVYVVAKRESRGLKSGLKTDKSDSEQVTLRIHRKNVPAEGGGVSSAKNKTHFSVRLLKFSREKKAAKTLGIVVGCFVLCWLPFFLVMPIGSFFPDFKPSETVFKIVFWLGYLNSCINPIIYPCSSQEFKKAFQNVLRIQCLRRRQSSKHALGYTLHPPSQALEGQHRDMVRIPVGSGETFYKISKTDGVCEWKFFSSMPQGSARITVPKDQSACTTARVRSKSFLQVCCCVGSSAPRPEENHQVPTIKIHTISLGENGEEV
Description: In vitro binding affinity towards alpha-1 adrenergic receptor in rat frontal cortex homogenate using of [3H]prazosin as radioligand

[6] = target: T5, Adrenergic receptor alpha-2 (Rattus norvegicus, UniProt P22086+P19328+P22909); format: tissue-based, Frontal cortex
T5 sequence (P22086 whole entry): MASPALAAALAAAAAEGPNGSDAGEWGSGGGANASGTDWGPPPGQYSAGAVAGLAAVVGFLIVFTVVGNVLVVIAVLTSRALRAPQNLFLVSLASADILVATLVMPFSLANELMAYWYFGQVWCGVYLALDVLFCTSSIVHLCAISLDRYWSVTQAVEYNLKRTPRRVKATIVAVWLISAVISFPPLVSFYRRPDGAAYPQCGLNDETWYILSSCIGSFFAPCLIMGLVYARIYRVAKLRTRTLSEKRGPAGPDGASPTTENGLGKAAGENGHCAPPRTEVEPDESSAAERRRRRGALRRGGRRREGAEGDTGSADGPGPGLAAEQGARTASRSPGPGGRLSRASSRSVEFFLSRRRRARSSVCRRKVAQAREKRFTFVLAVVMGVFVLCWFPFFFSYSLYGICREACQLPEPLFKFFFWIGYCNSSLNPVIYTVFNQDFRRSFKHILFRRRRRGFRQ
T5 sequence (P19328 whole entry): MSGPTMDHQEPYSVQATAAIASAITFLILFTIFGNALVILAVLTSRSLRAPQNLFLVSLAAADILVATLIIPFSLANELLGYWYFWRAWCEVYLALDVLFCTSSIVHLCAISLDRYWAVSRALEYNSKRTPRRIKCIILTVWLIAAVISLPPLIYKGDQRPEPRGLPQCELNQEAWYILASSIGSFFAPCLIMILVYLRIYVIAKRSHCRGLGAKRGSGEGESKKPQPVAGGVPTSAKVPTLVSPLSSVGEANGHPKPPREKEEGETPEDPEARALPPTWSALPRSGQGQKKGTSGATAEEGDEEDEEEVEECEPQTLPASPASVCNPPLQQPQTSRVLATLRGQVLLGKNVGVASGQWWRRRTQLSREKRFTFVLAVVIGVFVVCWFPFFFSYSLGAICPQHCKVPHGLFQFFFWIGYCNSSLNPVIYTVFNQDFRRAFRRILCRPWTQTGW
T5 sequence (P22909 whole entry): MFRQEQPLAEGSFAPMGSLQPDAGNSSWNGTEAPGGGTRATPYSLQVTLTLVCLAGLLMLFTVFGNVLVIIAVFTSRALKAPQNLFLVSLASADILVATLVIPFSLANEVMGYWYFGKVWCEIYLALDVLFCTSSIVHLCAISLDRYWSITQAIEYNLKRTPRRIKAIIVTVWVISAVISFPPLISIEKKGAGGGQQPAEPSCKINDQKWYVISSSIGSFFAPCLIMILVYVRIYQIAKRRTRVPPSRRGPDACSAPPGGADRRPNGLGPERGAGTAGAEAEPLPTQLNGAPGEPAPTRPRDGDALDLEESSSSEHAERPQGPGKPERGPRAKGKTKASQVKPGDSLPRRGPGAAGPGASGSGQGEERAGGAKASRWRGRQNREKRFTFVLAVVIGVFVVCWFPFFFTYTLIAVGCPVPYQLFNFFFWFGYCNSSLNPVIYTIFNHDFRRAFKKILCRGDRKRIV
Description: In vitro binding affinity towards alpha-2 adrenergic receptor in rat frontal cortex homogenate using of [3H]clonidine as radioligand

Histamine H1 receptor = Histamine H1 receptor (Rattus norvegicus, UniProt P31390); assay: biochemical; format: tissue-based, Frontal cortex
Chain of Histamine H1 receptor (P31390 whole entry): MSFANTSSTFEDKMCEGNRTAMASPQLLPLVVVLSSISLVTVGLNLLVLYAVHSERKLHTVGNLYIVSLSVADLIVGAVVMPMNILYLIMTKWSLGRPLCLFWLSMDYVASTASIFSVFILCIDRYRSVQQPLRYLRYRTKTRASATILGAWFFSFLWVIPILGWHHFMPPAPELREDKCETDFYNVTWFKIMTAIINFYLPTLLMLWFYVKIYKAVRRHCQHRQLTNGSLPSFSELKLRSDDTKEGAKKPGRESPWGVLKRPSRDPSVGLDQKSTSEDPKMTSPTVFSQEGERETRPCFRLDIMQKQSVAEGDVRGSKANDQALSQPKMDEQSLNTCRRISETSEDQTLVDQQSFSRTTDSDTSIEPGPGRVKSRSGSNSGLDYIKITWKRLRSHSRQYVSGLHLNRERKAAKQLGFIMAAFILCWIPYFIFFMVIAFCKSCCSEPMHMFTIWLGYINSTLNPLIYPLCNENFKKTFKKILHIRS
Description: In vitro binding affinity towards Histamine H1 receptor of rat frontal cortex homogenate by using radioligand [3H]pyrilamine

Mus musculus [7] = organism: Mus musculus; assay: animal or person; format: functional; conditions: po
Description: In vivo inhibitory activity tested in apomorphine climbing mice after oral administration

Mus musculus [8] = organism: Mus musculus; assay: animal or person; format: functional; conditions: po; remark: listed apart in the source
Description: In vivo inhibitory activity against 5-MeO-DMT-Induced Head-Twitches in mouse after oral administration

[9] = target: T6, Muscarinic acetylcholine receptor M1 (Rattus norvegicus, UniProt P08482); assay: biochemical; format: tissue-based, Frontal cortex
T6 sequence (P08482 whole entry): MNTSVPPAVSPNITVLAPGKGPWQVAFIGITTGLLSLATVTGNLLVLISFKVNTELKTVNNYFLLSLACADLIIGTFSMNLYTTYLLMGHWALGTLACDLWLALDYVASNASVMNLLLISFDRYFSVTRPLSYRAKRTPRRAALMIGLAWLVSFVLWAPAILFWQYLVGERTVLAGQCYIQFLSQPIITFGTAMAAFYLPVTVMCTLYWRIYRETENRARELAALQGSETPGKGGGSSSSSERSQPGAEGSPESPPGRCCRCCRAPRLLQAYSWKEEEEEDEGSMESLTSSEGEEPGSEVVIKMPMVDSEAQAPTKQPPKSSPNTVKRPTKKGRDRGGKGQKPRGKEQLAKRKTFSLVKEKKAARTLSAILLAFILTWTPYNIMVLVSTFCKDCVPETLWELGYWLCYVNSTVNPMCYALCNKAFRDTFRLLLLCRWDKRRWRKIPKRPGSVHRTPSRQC
Description: In vitro binding affinity towards M1 receptor of rat frontal cortex homogenate by using radioligand [3H]QNB

Rattus norvegicus [10] = organism: Rattus norvegicus; assay: animal or person; format: functional; conditions: po
Description: In vivo inhibition against MK-801 induced hyperactivity in rats after oral administration

Rattus norvegicus [11] = organism: Rattus norvegicus; format: functional; conditions: dose 0.3 mg/kg, route intraperitoneal
Description: Inhibitory activity tested in rats after intraperitoneal administration at 0.3 mg/kg with saline

Rattus norvegicus [12] = organism: Rattus norvegicus; assay: animal or person; format: functional; conditions: po; remark: listed apart in the source
Description: In vivo inhibition of spontaneous locomotory activity tested in rats after oral administration

Rattus norvegicus [13] = organism: Rattus norvegicus; assay: animal or person; format: functional; conditions: po; remark: listed apart in the source
Description: In vivo inhibition against catalepsy in rats after oral administration evaluated by metal bar

Rattus norvegicus [14] = organism: Rattus norvegicus; assay: animal or person; format: functional; conditions: po; remark: listed apart in the source
Description: In vivo inhibition against conditioned avoidance response in rats after oral administration

Rattus norvegicus [15] = organism: Rattus norvegicus; format: functional
Description: Minimal inhibitory activity tested in rats after intraperitoneal administration

D(1A) dopamine receptor [16] = target: T1, D(1A) dopamine receptor; design: species or system Tissue; remark: listed apart in the source
D(2) dopamine receptor = D(2) dopamine receptor (Rattus norvegicus, UniProt P61169); design: species or system Tissue
Chain of D(2) dopamine receptor (P61169 whole entry): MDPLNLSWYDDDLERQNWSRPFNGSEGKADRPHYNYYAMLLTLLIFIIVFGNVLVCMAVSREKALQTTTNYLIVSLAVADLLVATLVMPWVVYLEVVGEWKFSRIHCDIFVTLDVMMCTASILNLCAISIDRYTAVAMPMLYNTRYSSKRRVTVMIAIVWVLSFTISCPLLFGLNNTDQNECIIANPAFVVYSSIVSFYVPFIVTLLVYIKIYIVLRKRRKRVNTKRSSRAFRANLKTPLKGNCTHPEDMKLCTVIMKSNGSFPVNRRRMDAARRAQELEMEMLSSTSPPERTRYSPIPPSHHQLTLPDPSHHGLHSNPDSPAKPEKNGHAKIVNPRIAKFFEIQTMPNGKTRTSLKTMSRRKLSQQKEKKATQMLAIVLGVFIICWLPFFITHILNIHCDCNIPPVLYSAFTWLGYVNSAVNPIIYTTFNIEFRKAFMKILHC

Mus musculus [17] = organism: Mus musculus
[18] = target: T3, 5-hydroxytryptamine receptor 2A; design: species or system Tissue
D(3) dopamine receptor [19] = target: T2, D(3) dopamine receptor; format: cell-based; conditions: sf9
Description: as §1

T1 sequence (P18901 whole entry): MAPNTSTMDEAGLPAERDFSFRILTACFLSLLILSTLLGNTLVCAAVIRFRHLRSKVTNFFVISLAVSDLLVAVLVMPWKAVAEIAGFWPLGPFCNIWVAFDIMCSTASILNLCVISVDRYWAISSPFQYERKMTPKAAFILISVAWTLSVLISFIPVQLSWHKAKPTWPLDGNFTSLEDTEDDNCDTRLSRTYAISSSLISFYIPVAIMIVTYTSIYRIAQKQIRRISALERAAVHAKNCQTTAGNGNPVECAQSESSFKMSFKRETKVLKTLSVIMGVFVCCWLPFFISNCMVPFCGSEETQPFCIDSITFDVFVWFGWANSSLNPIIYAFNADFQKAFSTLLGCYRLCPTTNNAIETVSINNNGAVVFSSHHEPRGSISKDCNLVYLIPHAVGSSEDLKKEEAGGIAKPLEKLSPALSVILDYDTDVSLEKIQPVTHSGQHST

## CN1CCN(C2=Cn3c(C=O)ccc3Sc3ccccc32)CC1
D(1A) dopamine receptor [1]
  Ki: 4.28 µM
D(3) dopamine receptor [2]
  Ki: 0.102 µM
[3]
  Ki: 0.02 µM

## CN1CCN(C2=Cn3c(CO)ccc3Sc3ccccc32)CC1
D(1A) dopamine receptor [1]
  Ki: 1.74 µM
D(3) dopamine receptor [2]
  Ki: 0.113 µM
[3]
  Ki: 0.019 µM

## CN1CCN(C2=Cn3cccc3Sc3ccccc32)CC1
[4]
  Ki: 0.0011 µM
[5]
  Ki: 0.0005 µM
[6]
  Ki: 1.02 µM
Histamine H1 receptor
  Ki: 0.0027 µM
Mus musculus [7]
  ED50: 1.64 mg/kg and 5.5 µmol/kg
Mus musculus [8]
  ED50: 1.99 mg/kg and 6.7 µmol/kg
[9]
  Ki: 2.07 µM
Rattus norvegicus [10]
  ED50: 1.1 mg/kg and 3.69 µmol/kg
Rattus norvegicus [11]
  Correct responses: 80.1% and 81.5%
Rattus norvegicus [12]
  ED50: 0.51 mg/kg and 1.71 µmol/kg
Rattus norvegicus [13]
  ED50: > 100 mg/kg and > 336 µmol/kg
Rattus norvegicus [14]
  ED50: 1.1 mg/kg and 3.7 µmol/kg
Rattus norvegicus [15]
  Min ID: 1 µM/kg

## COCc1ccc2n1CC(N1CCN(C)CC1)c1cc(Cl)ccc1S2 (configuration not stated)
D(1A) dopamine receptor [1]
  Ki: > 1000 µM
D(3) dopamine receptor [2]
  Ki: 0.316 µM
[3]
  Ki: 0.405 µM

## Cc1ccc2n1C=C(N1CCN(C)CC1)c1ccccc1S2
[5]
  Ki: 0.0042 µM
Histamine H1 receptor
  Ki: 0.0027 µM
[9]
  Ki: 2.3 µM

## CN1CCN(C2=Cn3c(/C=N/O)ccc3Sc3ccccc32)CC1
D(1A) dopamine receptor [16]
  Ki: Not Active
D(2) dopamine receptor
  Ki: Not Active
D(3) dopamine receptor [2]
  Ki: 4.26 µM
[3]
  Ki: 1.98 µM

## CN1CCN([C@@H]2Cn3cccc3Sc3ccc(Cl)cc32)CC1
Mus musculus [8]
  ED50: 14.3 µmol/kg
Rattus norvegicus [13]
  ED50: 115 µmol/kg
Mus musculus [17]
  ED50: inactive

## CN1CCN(C2=C(C=O)n3c(C=O)ccc3Sc3ccccc32)CC1
D(1A) dopamine receptor [16]
  Ki: Not Active
D(2) dopamine receptor
  Ki: Not Active
D(3) dopamine receptor [2]
  Ki: > 1 µM
[3]
  Ki: 2.3 µM

## CN1CCN(C2=Cn3cccc3Sc3ccc(Br)cc32)CC1
D(1A) dopamine receptor [1]
  Ki: 0.0034 µM
D(3) dopamine receptor [2]
  Ki: 0.00025 µM
[3]
  Ki: 0.00083 µM

## CN1CCN(C2Cn3c(CO)ccc3Sc3ccc(Cl)cc32)CC1 (configuration not stated)
[18]
  Ki: Not Active
D(1A) dopamine receptor [16]
  Ki: Not Active
D(2) dopamine receptor
  Ki: Not Active
D(3) dopamine receptor [19]
  Ki: Not Active

## O=C1NCCN1CCN1CCN(C2Cn3cccc3Sc3ccc(Cl)cc32)CC1 (configuration not stated)
D(1A) dopamine receptor [1]
  Ki: 1.62 µM
D(3) dopamine receptor [2]
  Ki: 0.066 µM
[3]
  Ki: 0.074 µM

## CN1CCCN(C2=Cn3cccc3Sc3ccc(Cl)cc32)CC1
D(1A) dopamine receptor [1]
  Ki: 0.00587 µM
D(3) dopamine receptor [2]
  Ki: 0.0043 µM
[3]
  Ki: 0.0043 µM

## CC(C)OCc1ccc2n1C=C(N1CCN(C)CC1)c1ccccc1S2
D(1A) dopamine receptor [1]
  Ki: 7.6 µM
D(3) dopamine receptor [2]
  Ki: 0.278 µM
[3]
  Ki: 0.217 µM

From ChEMBL document CHEMBL1139457, “Pyrrolo[1,3]benzothiazepine-based serotonin and dopamine receptor antagonists. Molecular modeling, further structure-activity relationship studies, and identification of novel atypical antipsychotic agents” (J Med Chem, 2004)
